Laboratory results published in US5574178A, “4,6-Di-t-butyl-dihydrobenzofuran-5-ol and its derivatives” (Chugai Seiyaku Kabushiki Kaisha, priority 1992, dated 1996).

Experiments:
Format in all cases: biochemical
[1] = biological target: lipid peroxidation due to the autoxidation of linoleic acid; experiment: Linoleic acid-MCLA system, Test Case 4; conditions: linoleic acid 10 mM, MCLA 2 μM, 1-butanol, 37° C.; read-out: 50% inhibition concentration
Procedure: The test compounds were evaluated for their inhibitory effect against lipid peroxidation due to the autoxidation of linoleic acid.
A reaction solution was prepared by mixing linoleic acid and MCLA (2-methyl-6-(p-methoxyphenyl)-3,7-dihydroimidazo[1,2-a]pyrazin-3-one) in 1-butanol and stored in ice until use. An amount of this reaction solution was sampled in a chemiluminescence measuring cell and, immediately thereafter, the intensity of chemiluminescence due to the autoxidation of linoleic acid was measured at 37° C. in a thermostatic bath. A normal chemiluminescence intensity measurement was conducted about 2-4 min later when the chemiluminescence substantially peaked.

[2] = test system: lactoperoxidase reaction system (singlet oxygen); experiment: Lactoperoxidase system (singlet oxygen system); conditions: pH 4.5, 37° C.
Procedure: The test compounds were evaluated under the following conditions for their effect against a lactoperoxidase reaction system.
Lactoperoxidase 10 μg/ml
Acetate buffer solution (pH 4.5)
A reaction solution was prepared by mixing hydrogen peroxide, sodium bromide and luminol in the acetate buffer solution and stored in ice until use. After warming the reaction solution at 37° C. for about 10 min, the reaction was started by addition of the lactoperoxidase solution. A measurement was started right after the addition of lactoperoxidase and subsequent stirring; chemiluminescence intensity was measured right after the start of the reaction. In the experimental model, luminol-dependent chemiluminescence induced by singlet oxygen generated by enzymatic reaction of lactoperoxidase was detected, thus enabling the measurement of the reactivity with singlet oxygen.

[3] = test system: xanthine oxidase (XOD)-hypoxanthine (HX) system (superoxide); experiment: Xanthine oxidase system (superoxide generating system); conditions: pH 7.4, 37° C.
Procedure: The test compounds were evaluated under the following conditions for their effect in a reaction due to a xanthine oxidase (XOD)-hypoxanthine (HX) system in aqueous solution.
Xanthine oxidase 0.1 U/ml
Hepes buffer solution (pH 7.4)
A reaction solution was prepared by mixing hypoxanthine and luminol in the Hepes buffer solution and stored in ice until use. After warming the reaction solution at 37° C. for about 10 min, the reaction was started by addition of the xanthine oxidase solution. A measurement was started right after the addition of xanthine oxidase and subsequent stirring; chemiluminescence intensity was normally measured right after the start of the reaction. In the experimental model, luminol-dependent chemiluminescence induced by superoxide generated by enzymatic reaction of xanthine oxidase was detected, thus enabling the measurement of the reactivity with superoxide.

Rabbit LDL = experiment: Amount of TBARS (Cu^2+-induced oxidation of rabbit LDL); conditions: 5 μM Cu^2+
Procedure: Rabbit LDL was prepared in accordance with the method of Havel et al. [Havel, R. J. et al., J. Clin. Invest., 34, (1955)]. After adding 5 μM of Cu^2+, the mixture was warmed until a thiobarbituric acid reactive substance (TBARS) was produced. The test compounds were evaluated for their anti-oxidative action with the amount of TBARS being used as an index. [formula]

Structure (SMILES) | IC50 [1] | Chemiluminescence intensity (% of control) ([2]; at 20 μM of compound) | Chemiluminescence intensity (% of control) ([2]; at 200 μM of compound) | Chemiluminescence intensity (% of control) ([3]; at 20 μM of compound) | Chemiluminescence intensity (% of control) ([3]; at 200 μM of compound) | TBARS produced (%) (Rabbit LDL; at 10^-5 M of compound, 10 µM) | TBARS produced (%) (Rabbit LDL; at 10^-6 M of compound, 1 µM)
CC(C)(C)c1c(O)ccc2c1CCO2 [Comparison 1, reference compound] | 62 µM | 77.6 % of control | 6.0 % of control | 23.9 % of control | 6.3 % of control |  | 
CC(C)(C)c1c(O)ccc2c1CC(CO)O2 (centres unmarked) [Comparison 3, reference compound] | 54 µM |  |  |  |  |  | 
CC(C)(C)c1cc2c(cc1O)CC(C(C)(C)C)O2 (centres unmarked) [Comparison 4, reference compound] | 42 µM |  |  |  |  |  | 
CC1Cc2c(cc(C(C)(C)C)c(O)c2C(C)(C)C)O1 (centres unmarked) [Compound b, 4,6-Di-tert-Butyl-5-Hydroxy-2-Methyl-2,3-Dihydrobenzofuran] |  |  |  |  |  | 8.9% | 53.8%
CC1(C)Cc2c(cc(C(C)(C)C)c(O)c2C(C)(C)C)O1 [Compound c, 5-Hydroxy-4,6-Di-tert-Butyl-2,2-Dimethyl-2,3-Dihydrobenzofuran] | 7 µM |  |  |  |  | 9.2% | 55.3%
CCC1(CC)Cc2c(cc(C(C)(C)C)c(O)c2C(C)(C)C)O1 [Compound d, 4,6-Di-tert-Butyl-2,2-Diethyl-5-Hydroxy-2,3-Dihydrobenzofuran] |  |  |  |  |  | 9.4% | 76.9%
CCCC1(CCC)Cc2c(cc(C(C)(C)C)c(O)c2C(C)(C)C)O1 [Compound e, 4,6-Di-tert-Butyl-2,2-Di-n-Propyl-5-Hydroxy-2,3-Dihydrobenzofuran] |  |  |  |  |  | 13.5% | 86.3%
CCCCC1(CCCC)Cc2c(cc(C(C)(C)C)c(O)c2C(C)(C)C)O1 [Compound f, 4,6-Di-tert-Butyl-2,2-Di-n-Butyl-5-Hydroxy-2,3-Dihydrobenzofuran] | 8 µM |  |  | 91.0 % of control | 102.4 % of control | 12.2% | 81.6%
CCCCCCCCC1Cc2c(cc(C(C)(C)C)c(O)c2C(C)(C)C)O1 (centres unmarked) [Compound g, 4,6-Di-tert-Butyl-5-Hydroxy-2-Octyl-2,3-Dihydrobenzofuran] |  | 97.0 % of control | 76.0 % of control | 88.6 % of control | 104.8 % of control | 8.8% | 82.6%
CC(C)(C)c1cc2c(c(C(C)(C)C)c1O)CC(C(C)(C)C)O2 (centres unmarked) [Compound h, 2,4,6-Tri-tert-Butyl-5-Hydroxy-2,3-Dihydrobenzofuran] | 9 µM |  |  |  |  | 10.6% | 74.0%
CC(C)C1(C(C)C)Cc2c(cc(C(C)(C)C)c(O)c2C(C)(C)C)O1 [Compound i, 4,6-Di-tert-Butyl-2,2-Di-i-Propyl-5-Hydroxy-2,3-Dihydrobenzofuran] |  |  |  |  |  | 10.3% | 90.8%
CC(C)(C)c1cc2c(c(C(C)(C)C)c1O)CC(c1ccccc1)(c1ccccc1)O2 [Compound j, 4,6-Di-tert-Butyl-2,2-Diphenyl-5-Hydroxy-2,3-Dihydrobenzofuran] |  |  |  |  |  | 11.6% | 93.1%
CC(C)(C)c1cc2c(c(C(C)(C)C)c1O)CC(Cc1ccccc1)(Cc1ccccc1)O2 [Compound k, 4,6-Di-tert-Butyl-2,2-Dibenzyl-5-Hydroxy-2,3-Dihydrobenzofuran] |  |  |  |  |  | 11.1% | 93.0%
CC(C)(C)c1cc2c(c(C(C)(C)C)c1O)CC1(CCCC1)O2 [Compound m, 4,6-Di-tert-Butyl-5-Hydroxy-2,3-Dihydrobenzofuran-2-Spiro-1'-Cyclopentane] | 7 µM |  |  | 83.1 % of control | 89.8 % of control | 11.8% | 85.3%
CC(C)(C)c1cc2c(c(C(C)(C)C)c1O)CC1(CCCCC1)O2 [Compound n, 4,6-Di-tert-Butyl-5-Hydroxy-2,3-Dihydrobenzofuran-2-Spiro-1'-cyclohexane] | 9 µM |  |  | 100.3 % of control | 104.9 % of control | 15.6% | 76.2%
CC(C)(C)c1cc2c(c(C(C)(C)C)c1O)CC1(CCCCCC1)O2 [Compound o, 4,6-Di-tert-Butyl-5-Hydroxy-2,3-Dihydrobenzofuran-2-Spiro-1'-Cycloheptane] |  |  |  |  |  | 9.0% | 91.2%
CC(C)(C)c1cc2c(c(C(C)(C)C)c1O)CC1(CCCCCCC1)O2 [Compound p, 4,6-Di-tert-Butyl-5-Hydroxy-2,3-Dihydrobenzofuran-2-Spiro-1'-Cyclooctane] |  |  |  |  |  | 22.0% | 91.8%
CC(C)(C)c1cc2occc2c(C(C)(C)C)c1O [Compound r, 4,6-Di-tert-Butyl-5-Hydroxybenzofuran] |  |  |  |  |  | 30.1% | 74.2%
Cc1cc2c(C(C)(C)C)c(O)c(C(C)(C)C)cc2o1 [Compound s, 4,6-Di-tert-Butyl-5-Hydroxy-2-Methylbenzofuran] |  |  |  |  |  | 39.2% | 75.7%
CC(C)(C)c1cc2c(C(C)(C)C)c(O)c(C(C)(C)C)cc2o1 [Compound t, 2,4,6-Tri-tert-Butyl-5-Hydroxybenzofuran] |  |  |  |  |  | 68.0% | 81.7%
CCCOc1cc(C(C)(C)C)c(O)c(C(C)(C)C)c1C [Compound u, 2,6-Di-tert-Butyl-3-Methyl-4-Propyloxyphenol] |  |  |  |  |  | 47.3% | 87.7%
C=CCOc1cc(C(C)(C)C)c(O)c(C(C)(C)C)c1C [Compound v, 4-Allyloxy-2,6-Di-tert-Butyl-3-Methylphenol] |  |  |  |  |  | 80.3% | 99.3%
Cc1c(OCCCOc2cc(C(C)(C)C)c(O)c(C(C)(C)C)c2C)cc(C(C)(C)C)c(O)c1C(C)(C)C [Compound w, 1,3-Bis(3,5-Di-tert-Butyl-4-Hydroxy-2-Methylphenoxy)propane] |  |  |  |  |  | 17.2% | 71.3%
CCCCCC1(CCCCC)Cc2c(cc(C(C)(C)C)c(O)c2C(C)(C)C)O1 [Compound x, 4,6-Di-tert-Butyl-2,2-Di-n-Pentyl-5-Hydroxy-2,3-Dihydrobenzofuran] | 5 µM |  |  | 84.5 % of control | 85.6 % of control | 42.1% | 96.3%
CCCCCCCCC1(CCCCCCCC)Cc2c(cc(C(C)(C)C)c(O)c2C(C)(C)C)O1 [Compound y, 4,6-Di-tert-Butyl-2,2-Di-n-Octyl-5-Hydroxy-2,3-Dihydrobenzofuran] |  |  |  | 94.2 % of control | 110.2 % of control | 72.3% | 85.4%
CC(C)CCC1(CCC(C)C)Cc2c(cc(C(C)(C)C)c(O)c2C(C)(C)C)O1 [Compound z, 2,2-Diisoamyl-4,6-Di-tert-Butyl-5-Hydroxy-2,3-Dihydrobenzofuran] | 6 µM |  |  | 99.2 % of control | 107.5 % of control | 22.9% | 77.5%
CC(C)(C)c1cc2c(c(C(C)(C)C)c1O)CC(CCl)O2 (centres unmarked) [l, 4,6-tert-Butyl-2-Chloromethyl-5-Hydroxy-2,3-Dihydrobenzofuran] |  |  |  |  |  | 8.1% | 11.5%
CCCc1c2c(c(C(C)(C)C)c(O)c1C(C)(C)C)CC(C)(C)O2 [q, 5-Hydroxy-4,6-Di-tert-Butyl-2,2-Dimethyl-7-Propyl-2,3-Dihydrobenzofuran] | 5 µM | 104.0 % of control | 73.4 % of control |  |  | 56.8% | 97.4%
